Patent publication US20260317344A1, “EGFR INHIBITORS FOR TREATING DISEASE” (BLOSSOMHILL THERAPEUTICS, INC., priority 2023, published 2026)
Where two headings read alike, the source gives them in different places.

Legend:
Type in all cases: cell-based
[1] = test system: BaF3 cells with engineered EGFR L858R/T790M/C797S; assay: 3-Day CellTiter Glo (CTG) cell proliferation assay, BaF3 EGFR L858R/T790M/C797S; conditions: Mus musculus, 3-day CTG proliferation, 72 hours
Procedure, shortened: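 Luminescent ATP read-out (CellTiter-Glo 2.0) after 72 h compound exposure gives IC50 values. BaF3 transgenic cells, one thousand per well, received a nine-dose series and were kept at 37 °C under 5% CO2.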

[2] = test system: BaF3 cells with engineered EGFR d746-750/T790M; assay: 3-Day CellTiter Glo (CTG) cell proliferation assay, BaF3 EGFR d746-750/T790M; conditions: Mus musculus; BaF3 EGFR d746-750/T790M cells, 3-day CTG proliferation, 72 hours
Description: (§1) 3-DAY CellTiter Glo (CTG) Cell Proliferation Assays (BaF3 Cell Lines)
(§2) Cell proliferation assays were carried out in BaF3 cells engineered with EGFR mutations. BaF3 cells with engineered EGFR L858R/T790M/C797S, EGFR L858R/C797S, or EGFR d746-750/T790M transgene, one thousand cells/50 μL per well were seeded in white 384-well plate, followed by treatment with indicated compounds in a 9-dose dilution series using TECAN d300e liquid dispenser. Cells were incubated with compounds for 72 hours at 37° C. and 5% CO2. Cell proliferation was measured using CellTiter-Gbo 2.0 luciferase-based ATP detection assay (Promega, Madison, WI) at 18 μL per well following the manufacturer's protocol. Plates were then read on a TECAN Sparks multimode microplate reader. Data was analyzed using GraphPad Prism 9 (GraphiPad Software, San Diego, CA) to obtain IC50 values.

[3] = target: T1, pEGFR, NCI-H1975 cells (L858R/T790M EGFR) (Homo sapiens, UniProt P00533, L858R/T790M); assay: Cellular EGFR phosphorylation assay (LANCE Ultra TR-FRET) in NCI-H1975 cells
T1 construct: pEGFR (Tyr1068) TR-FRET
T1 sequence (P00533 25-1210 T790M/L858R): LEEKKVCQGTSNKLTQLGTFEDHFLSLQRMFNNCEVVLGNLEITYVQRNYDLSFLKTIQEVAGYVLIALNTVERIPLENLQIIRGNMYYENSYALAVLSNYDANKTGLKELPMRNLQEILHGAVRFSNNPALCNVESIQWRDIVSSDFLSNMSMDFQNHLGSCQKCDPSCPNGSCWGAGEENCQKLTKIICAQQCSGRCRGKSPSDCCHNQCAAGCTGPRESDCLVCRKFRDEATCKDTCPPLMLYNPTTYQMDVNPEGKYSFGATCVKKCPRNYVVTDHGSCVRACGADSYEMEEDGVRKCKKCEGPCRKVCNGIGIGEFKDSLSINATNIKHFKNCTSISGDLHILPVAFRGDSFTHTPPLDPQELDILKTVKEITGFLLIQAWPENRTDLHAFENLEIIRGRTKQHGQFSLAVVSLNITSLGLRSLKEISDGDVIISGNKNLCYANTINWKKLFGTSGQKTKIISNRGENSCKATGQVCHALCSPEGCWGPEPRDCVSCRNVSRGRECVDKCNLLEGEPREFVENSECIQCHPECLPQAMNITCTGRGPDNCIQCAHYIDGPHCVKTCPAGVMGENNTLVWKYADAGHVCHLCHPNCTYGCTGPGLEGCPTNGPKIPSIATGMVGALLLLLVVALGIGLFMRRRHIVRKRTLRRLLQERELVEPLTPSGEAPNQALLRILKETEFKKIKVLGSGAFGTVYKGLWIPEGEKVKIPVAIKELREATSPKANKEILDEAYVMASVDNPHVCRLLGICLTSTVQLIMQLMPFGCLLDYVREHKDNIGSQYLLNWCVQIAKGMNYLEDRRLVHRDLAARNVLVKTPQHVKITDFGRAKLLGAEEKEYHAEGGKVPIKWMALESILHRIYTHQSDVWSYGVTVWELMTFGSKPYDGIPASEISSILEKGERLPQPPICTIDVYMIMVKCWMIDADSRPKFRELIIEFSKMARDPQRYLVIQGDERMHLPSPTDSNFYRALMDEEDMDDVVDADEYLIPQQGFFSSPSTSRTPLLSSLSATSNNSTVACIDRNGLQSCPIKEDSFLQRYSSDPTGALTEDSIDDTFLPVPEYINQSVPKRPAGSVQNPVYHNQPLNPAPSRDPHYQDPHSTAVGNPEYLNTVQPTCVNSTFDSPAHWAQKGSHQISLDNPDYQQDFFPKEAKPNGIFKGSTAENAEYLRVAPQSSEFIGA
Procedure, shortened: (§3)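 Phospho-EGFR (Tyr1068) measured by TR-FRET in lysates after 4 h compound exposure at 37° C (9 doses, 3-fold steps). A431 cells, seeded at 30 thousand per well, received 40 ng/mL EGF for the last 10 min; PC-9 and NCI-H1975 seeded at 50 thousand per well, unstimulated. IC50 values reported.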

[4] = target: T2, pEGFR, A431 cells (wildtype EGFR) (Homo sapiens, UniProt P00533); assay: Cellular EGFR phosphorylation assay (LANCE Ultra TR-FRET) in A431 cells
T2 construct: pEGFR (Tyr1068) TR-FRET
T2 sequence (P00533 25-1210): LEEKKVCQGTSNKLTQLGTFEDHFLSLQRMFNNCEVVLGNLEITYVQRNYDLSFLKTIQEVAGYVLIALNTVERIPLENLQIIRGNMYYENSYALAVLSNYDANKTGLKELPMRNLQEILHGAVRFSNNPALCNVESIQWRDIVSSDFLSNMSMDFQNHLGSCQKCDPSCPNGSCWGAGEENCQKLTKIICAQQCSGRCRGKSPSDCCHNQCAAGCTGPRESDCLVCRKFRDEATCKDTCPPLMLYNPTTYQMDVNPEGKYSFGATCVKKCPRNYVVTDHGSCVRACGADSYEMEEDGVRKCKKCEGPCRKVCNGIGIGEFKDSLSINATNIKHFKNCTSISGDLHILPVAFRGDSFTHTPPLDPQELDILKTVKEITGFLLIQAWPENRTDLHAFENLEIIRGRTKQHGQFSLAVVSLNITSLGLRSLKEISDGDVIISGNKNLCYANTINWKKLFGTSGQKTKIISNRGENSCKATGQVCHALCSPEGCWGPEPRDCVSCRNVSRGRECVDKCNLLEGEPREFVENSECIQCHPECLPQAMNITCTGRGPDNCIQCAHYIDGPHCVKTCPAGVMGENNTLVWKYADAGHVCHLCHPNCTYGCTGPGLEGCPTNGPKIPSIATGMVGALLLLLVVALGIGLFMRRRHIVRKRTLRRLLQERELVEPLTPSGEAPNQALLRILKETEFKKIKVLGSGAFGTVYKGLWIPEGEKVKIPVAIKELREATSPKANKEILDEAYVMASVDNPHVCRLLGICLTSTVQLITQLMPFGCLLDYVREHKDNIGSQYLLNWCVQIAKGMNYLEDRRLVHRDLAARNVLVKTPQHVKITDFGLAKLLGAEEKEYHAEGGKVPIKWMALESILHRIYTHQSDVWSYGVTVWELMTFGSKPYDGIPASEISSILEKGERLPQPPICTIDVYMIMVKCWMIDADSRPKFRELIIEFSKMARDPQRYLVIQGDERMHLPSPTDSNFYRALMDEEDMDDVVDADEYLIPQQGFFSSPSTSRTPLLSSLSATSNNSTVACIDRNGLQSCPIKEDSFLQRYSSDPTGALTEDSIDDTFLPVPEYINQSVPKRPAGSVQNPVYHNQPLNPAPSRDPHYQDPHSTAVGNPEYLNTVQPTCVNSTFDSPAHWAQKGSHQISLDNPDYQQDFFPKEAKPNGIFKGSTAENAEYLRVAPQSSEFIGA
Procedure, shortened: as §3

PC-9 cells = assay: 5-Day CellTiter Glo (CTG) cell proliferation assay, PC-9; conditions: Homo sapiens; PC-9 cells (d746-750 EGFR), 5-day CTG proliferation, 120 hours; read-out: PC-9 IC50
Procedure, shortened: (§4)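 Proliferation of EGFR-driven NSCLC cells was scored as CellTiter-Glo 2.0 luminescence after a 5-day (120 h) incubation with compounds in 9 doses. IC50 values came from the dose-response curves.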

NCI-H1975 cells = assay: 5-Day CellTiter Glo (CTG) cell proliferation assay, NCI-H1975; conditions: Homo sapiens; NCI-H1975 cells (L858R/T790M EGFR), 5-day CTG proliferation, 120 hours; read-out: H1975 IC50
Procedure, shortened: as §4

[5] = target: T3, pEGFR, PC-9 cells (d746-750 EGFR) (Homo sapiens, UniProt P00533, DEL746-750); assay: Cellular EGFR phosphorylation assay (LANCE Ultra TR-FRET) in PC-9 cells
T3 construct: pEGFR (Tyr1068) TR-FRET
T3 sequence (P00533 with tags, fused parts or gaps DEL746-750): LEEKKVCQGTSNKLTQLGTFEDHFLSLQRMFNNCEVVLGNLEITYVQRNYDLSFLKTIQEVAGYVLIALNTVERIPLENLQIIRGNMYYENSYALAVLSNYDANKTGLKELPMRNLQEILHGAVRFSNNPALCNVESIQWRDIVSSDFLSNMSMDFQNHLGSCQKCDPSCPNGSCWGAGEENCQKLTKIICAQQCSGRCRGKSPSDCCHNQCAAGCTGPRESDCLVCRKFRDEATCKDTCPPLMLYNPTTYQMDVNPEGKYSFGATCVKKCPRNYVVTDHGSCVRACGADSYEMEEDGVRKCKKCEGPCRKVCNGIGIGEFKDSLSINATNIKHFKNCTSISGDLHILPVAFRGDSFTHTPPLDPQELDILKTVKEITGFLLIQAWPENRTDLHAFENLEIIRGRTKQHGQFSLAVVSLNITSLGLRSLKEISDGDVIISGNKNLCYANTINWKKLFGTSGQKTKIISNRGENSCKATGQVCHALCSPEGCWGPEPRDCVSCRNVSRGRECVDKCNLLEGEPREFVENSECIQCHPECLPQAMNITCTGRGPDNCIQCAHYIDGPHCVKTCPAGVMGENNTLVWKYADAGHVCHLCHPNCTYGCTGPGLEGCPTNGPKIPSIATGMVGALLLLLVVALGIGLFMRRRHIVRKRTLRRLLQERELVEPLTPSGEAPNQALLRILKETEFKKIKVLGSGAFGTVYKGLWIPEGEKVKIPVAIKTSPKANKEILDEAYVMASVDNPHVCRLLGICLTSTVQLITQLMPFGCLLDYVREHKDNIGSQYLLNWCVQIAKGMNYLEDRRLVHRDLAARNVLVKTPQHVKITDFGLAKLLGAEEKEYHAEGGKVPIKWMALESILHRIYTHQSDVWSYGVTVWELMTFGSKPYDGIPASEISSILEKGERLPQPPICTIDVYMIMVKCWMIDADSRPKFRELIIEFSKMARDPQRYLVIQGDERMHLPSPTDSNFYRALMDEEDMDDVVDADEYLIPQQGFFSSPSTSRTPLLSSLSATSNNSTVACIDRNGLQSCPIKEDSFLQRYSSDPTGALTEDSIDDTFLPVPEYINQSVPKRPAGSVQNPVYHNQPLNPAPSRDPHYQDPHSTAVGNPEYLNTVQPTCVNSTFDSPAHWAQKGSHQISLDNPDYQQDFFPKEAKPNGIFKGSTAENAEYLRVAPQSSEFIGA
Procedure, shortened: as §3

[6] = test system: BaF3 cells with engineered EGFR L858R/C797S; assay: 3-Day CellTiter Glo (CTG) cell proliferation assay, BaF3 EGFR L858R/C797S; conditions: Mus musculus, 3-day CTG proliferation, 72 hours
Description: as §1, §2

HCC827 cells = assay: 5-Day CellTiter Glo (CTG) cell proliferation assay, HCC827; conditions: Homo sapiens; HCC827 cells (d746-750 EGFR), 5-day CTG proliferation, 120 hours; read-out: HCC827 IC50
Procedure, shortened: as §4

[7] = 4 hours at 37° C., read-out: H1975 pEGFR IC50
[8] = 4 hours at 37° C., 40 ng/mL EGF for the final 10 minutes, read-out: A431 pEGFR IC50
[9] = 4 hours at 37° C., read-out: PC-9 pEGFR IC50

Row | SMILES | IC50 [1] [nM] | IC50 [2] [nM] | IC50 [3, 7] [nM] | IC50 [4, 8] [nM] | IC50 (PC-9 cells) [nM] | IC50 (NCI-H1975 cells) [nM] | IC50 [5, 9] [nM] | IC50 [6] [nM] | IC50 (HCC827 cells) [nM] | IC50 ([3]; read-out: H1975 pEGFR IC50, 4 hours at 37° C.) [nM] | IC50 ([4]; read-out: A431 pEGFR IC50, 4 hours at 37° C., 40 ng/mL EGF for the final 10 minutes) [nM] | IC50 ([5]; read-out: PC-9 pEGFR IC50, 4 hours at 37° C.) [nM]
1 | CCOc1nn(CCO)c2c1/C=C/c1n[nH]c3c(C)nc(cc13)-c1c(C)nn(C)c1OCCN(C)C2 [Ex. 75, 2-[(17E)-16-ethoxy-6,8,12,20-tetramethyl-2,8,10,11,12,13-hexahydro-14H-5,3-(azenometheno)tripyrazolo[3,4-f:3′,4′-j:4″,3″-n][1,4]oxazacyclopentadecin-14-yl]ethan-1-ol] | 2.94 | 203 | 7.41 | 53.7 | 43.1 | 74 | 15 | 0.22 | 10.6 |  |  | 
2 | CCOc1nn([C@@H](C)CO)c2c1/C=C/c1n[nH]c3c(C)nc(cc13)-c1c(C)nn(C)c1O[C@@H](C)[C@H]1CCCN1C2 [Ex. 179, (2S)-2-[(8aR,9S,19E)-1-ethoxy-9,11,13,21-tetramethyl-7,8,8a,9,11,17-hexahydro-6H-14,16-(azenometheno)tripyrazolo[3,4-f:3′,4′-j:4″,3″-n]pyrrolo[2,1-c][1,4]oxazacyclopentadecin-3(4H)-yl]propan-1-ol] | 1.47 | 0.88 | 1.38 | 8.64 | 0.78 | 1.41 | 0.69 | 0.1 | 0.23 |  |  | 
3 | CCOc1nn([C@@H](C)CO)c2c1/C=C/c1n[nH]c3cnc(cc13)-c1c(C)nn(C)c1O[C@@H](C)CNC2 [Ex. 92, (2S)-2-[(10S,17E)-16-ethoxy-6,8,10-trimethyl-2,8,10,11,12,13-hexahydro-14H-5,3-(azenometheno)tripyrazolo[3,4-f:3′,4′-j:4″,3″-n][1,4]oxazacyclopentadecin-14-yl]propan-1-ol] | 4.12 | 29.7 | 14.1 | 33.4 | 43.4 | 68.5 | 12.6 | 0.74 | 5.37 |  |  | 
4 | CCOc1nn(CCO)c2c1/C=C/c1n[nH]c3cnc(cc13)-c1c(C)nn(C)c1OC[C@@H](C)N(C1CC1)C2 [Ex. 114, 2-[(11R,17E)-12-cyclopropyl-16-ethoxy-6,8,11-trimethyl-2,8,10,11,12,13-hexahydro-14H-5,3-(azenometheno)tripyrazolo[3,4-f:3′,4′-j:4″,3″-n][1,4]oxazacyclopentadecin-14-yl]ethan-1-ol] | 1.84 | 3.72 | 5.67 | 22.2 | 4.87 | 27.1 | 3.56 | 0.42 | 1.66 |  |  | 
5 | Cc1nn(C)c2c1/C=C/c1n[nH]c3c(C)nc(cc13)-c1c(C)nn(C)c1O[C@@H](C)CN(C(C)C)C2 [Ex. 106, (10S,17E)-6,8,10,14,16,20-hexamethyl-12-(propan-2-yl)-2,10,11,12,13,14-hexahydro-8H-5,3-(azenometheno)tripyrazolo[3,4-f:3′,4′-j:4″,3″-n][1,4]oxazacyclopentadecine] | 3.41 | 4.75 | 3.03 | 10.2 | 14.6 | 7.92 | 9 | 1.37 | 2.18 |  |  | 

Stronger by IC50 [1], values ahead:

Row | IC50 [1] [nM] | IC50 [2] [nM] | IC50 [3, 7] [nM] | IC50 [4, 8] [nM] | IC50 (PC-9 cells) [nM] | IC50 (NCI-H1975 cells) [nM] | IC50 [5, 9] [nM] | IC50 [6] [nM] | IC50 (HCC827 cells) [nM] | IC50 ([3]; read-out: H1975 pEGFR IC50, 4 hours at 37° C.) [nM] | IC50 ([4]; read-out: A431 pEGFR IC50, 4 hours at 37° C., 40 ng/mL EGF for the final 10 minutes) [nM] | IC50 ([5]; read-out: PC-9 pEGFR IC50, 4 hours at 37° C.) [nM] | SMILES
6 | 1.37 | 4.36 | 2.68 | 34.7 | 8.86 | 3.6 | 4.17 | 0.2 | 1.05 |  |  |  | CNc1nn([C@@H](C)CO)c2c1/C=C/c1n[nH]c3c(C)nc(cc13)-c1c(C)nn(C)c1O[C@@H](C)CN(C)C2 [Ex. 101, (2S)-2-[(10S,17E)-6,8,10,12,20-pentamethyl-16-(methylamino)-2,8,10,11,12,13-hexahydro-14H-5,3-(azenometheno)tripyrazolo[3,4-f:3′,4′-j:4″,3″-n][1,4]oxazacyclopentadecin-14-yl]propan-1-ol]
7 | 0.48 | 0.61 | 1.1 | 8.44 | 2.37 | 0.97 | 1.26 | 0.06 | 0.58 |  |  |  | CCOc1nn(C[C@H](C)O)c2c1/C=C/c1n[nH]c3c(C)nc(cc13)-c1c(C)nn(C)c1O[C@@H](C)CN(C)C2 [Ex. 90, (2S)-1-[(10S,17E)-16-ethoxy-6,8,10,12,20-pentamethyl-2,8,10,11,12,13-hexahydro-14H-5,3-(azenometheno)tripyrazolo[3,4-f3′,4′-j:4″,3″-n][1,4]oxazacyclopentadecin-14-yl]propan-2-ol]
8 | 0.93 | 1.23 |  |  | 3.52 | 1.76 |  | 0.09 | 0.71 | 1.55 | 17.8 | 2.31 | CCNc1nn([C@@H](C)CO)c2c1/C=C/c1n[nH]c3c(C)nc(cc13)-c1c(C)nn(C)c1O[C@@H](C)CN(C)C2 [Ex. 94, (2S)-2-[(10S,17E)-16-(ethylamino)-6,8,10,12,20-pentamethyl-2,8,10,11,12,13-hexahydro-14H-5,3-(azenometheno)tripyrazolo[3,4-f:3′,4′-j:4″,3″-n][1,4]oxazacyclopentadecin-14-yl]propan-1-ol]
9 | 0.97 | 0.88 | 1.38 | 8.86 | 1.43 | 2.6 | 1.01 | 0.07 | 0.39 |  |  |  | CCOc1nn(CCO)c2c1/C=C/c1n[nH]c3c(C)nc(cc13)-c1c(C)nn(C)c1O[C@@H](C)[C@H]1CCCN1C2 [Ex. 177, 2-[(8aR,9S,19E)-1-ethoxy-9,11,13,21-tetramethyl-7,8,8a,9,11,17-hexahydro-6H-14,16-(azenometheno)tripyrazolo[3,4-f:3′,4′-j:4″,3″-n]pyrrolo[2,1-c][1,4]oxazacyclopentadecin-3(4H)-yl]ethan-1-ol]
10 | 1.17 | 1.17 | 1.79 | 3.52 | 5.53 | 2.65 | 2.91 | 0.24 | 0.9 |  |  |  | Cc1nn(CCO)c2c1/C=C/c1n[nH]c3c(C)nc(cc13)-c1c(C)nn(C)c1O[C@@H](C)CN(C(C)C)C2 [Ex. 109, 2-[(10S,17E)-6,8,10,16,20-pentamethyl-12-(propan-2-yl)-2,8,10,11,12,13-hexahydro-14H-5,3-(azenometheno)tripyrazolo[3,4-f3′,4′-j:4″,3″-n][1,4]oxazacyclopentadecin-14-yl]ethan-1-ol]
11 | 0.86 | 1.56 | 2.17 | 11 | 2.52 | 5.09 | 1.62 | 0.09 | 0.39 |  |  |  | CCOc1nn([C@H](C)CO)c2c1/C=C/c1n[nH]c3cnc(cc13)-c1c(C)nn(C)c1O[C@@H](C)CN(C)C2 [Ex. 88, (2R)-2-[(10S,17E)-16-ethoxy-6,8,10,12-tetramethyl-2,8,10,11,12,13-hexahydro-14H-5,3-(azenometheno)tripyrazolo[3,4-f:3′,4′-j:4″,3″-n][1,4]oxazacyclopentadecin-14-yl]propan-1-ol]
